US7928137B2, “Meta-benzamidine derivatives as serine protease inhibitors” (Tularik Limited, priority 1997, dated 2011)

Tests used:
plasma [1] = experiment: Kaolin Activated Partial Thromboplastin Time Test (APTT); format: biochemical; conditions: 37°
Description: Kaolin Activated Partial Thromboplastin Time Test Protocol
(§1) Venous blood was collected into 3.2% (0.109 m) trisodium citrate vacutainer tubes at 1 volume of anticoagulant to nine volumes of blood.
(§2) The blood cells were separated by centrifugation at 700 g for ten minutes to yield plasma, which was frozen at […] until required.
(§3) To perform the test, 100 μl of plasma was pipetted into in a glass test tube, 1 μl of test compound in DMSO was added, and allowed to warm to 37° over two minutes.
100 μl of APTT reagent resuspended in Owren's buffer (Thrombosis Reference Centre University of Manchester, withington Hospital, Manchester) was added, mixed thoroughly, and 100 μl of prewarmed kaolin suspension in Owren's buffer added.
This mixture was incubated for ten minutes at 37°, with regular gentle mixing by tilting through a 90° angle, three times sequentially at one minute intervals to maintain the kaolin in suspension.
After ten minutes 100 μl of 25 mM calcium chloride solution was added, the suspension redispersed by mixing as above and the time to clot formation recorded.
(§4) Data from a series of observations and test compound concentrations are analysed by a SAS statistical analysis program and a CT2 (Concentration required to double clotting time) for each compound is generated.

plasma [2] = experiment: Partial Thromboplastin Time Test (PT, tissue thromboplastin reagent); format: biochemical; conditions: Manchester (tissue thromboplasin) reagent, 37°
Description: Partial Thromboplastin Time Test Protocol
as §1, §2, §3
100 μl of warm (37°) Manchester (tissue thromboplasin) reagent (Helena Biosciences, UK) was added, allowed to equilibrate for sixty seconds. 100 μl of warm (37°) 25 mM calcium chloride solution was added to initiate clotting.
The test tube was tilted three times through a 90° angle every five seconds to mix the reagents and the time to clot formation recorded.
as §4

thrombin = thrombin (Homo sapiens, UniProt P00734); experiment: Enzyme inhibition assay, thrombin (chromogenic substrate pefachrome-TH); conditions: for thrombin pKi: room temperature, 0.1M phosphate buffer, pH7.4
trypsin = trypsin (Homo sapiens, UniProt P07477); experiment: Enzyme inhibition assay, trypsin (chromogenic substrate pefachrome-TRY); conditions: for trypsin pKi: room temperature, 0.1M phosphate buffer, pH7.4
human factor Xa = human factor Xa (Homo sapiens, UniProt P00742); experiment: Enzyme inhibition assay, factor Xa (chromogenic substrate pefachrome-FXA); conditions: for FXa pKi: room temperature, 0.1M phosphate buffer, pH7.4
Sequence of human factor Xa (P00742 235-488 limits assumed): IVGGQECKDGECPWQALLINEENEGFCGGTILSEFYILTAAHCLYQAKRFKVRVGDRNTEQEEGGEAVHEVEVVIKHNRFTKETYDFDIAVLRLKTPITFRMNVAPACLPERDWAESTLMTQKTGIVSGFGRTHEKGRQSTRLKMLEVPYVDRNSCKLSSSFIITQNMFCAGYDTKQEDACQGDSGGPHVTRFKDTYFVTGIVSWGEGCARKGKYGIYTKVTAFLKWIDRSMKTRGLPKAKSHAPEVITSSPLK
Sequence of human factor Xa (P00742 41-179 partner limits assumed): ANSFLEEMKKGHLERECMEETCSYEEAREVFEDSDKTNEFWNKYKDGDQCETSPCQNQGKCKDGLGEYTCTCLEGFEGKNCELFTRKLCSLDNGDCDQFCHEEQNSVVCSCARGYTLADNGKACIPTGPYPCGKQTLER

3-Amidino-benzoyl-D-phenylglycinyl-D-2-naphthylalanine amide [Example 36]
APTT CT2 (Concentration required to double clotting time) (plasma [1]): 9.4 µM
PT CT2 (Concentration required to double clotting time) (plasma [2]): 9 µM
thrombin pKi (thrombin): 6.24
trypsin pKi (trypsin): 6.16
FXa pKi (human factor Xa): 7.12

3-Amidino-benzoyl-D-phenylglycinyl-D-2-naphthylalaninyl N-methylglycine [Example 32]
APTT CT2 (Concentration required to double clotting time) (plasma [1]): 7.4 µM
PT CT2 (Concentration required to double clotting time) (plasma [2]): 5.6 µM
thrombin pKi (thrombin): 6.09
trypsin pKi (trypsin): 5.65
FXa pKi (human factor Xa): 7.39

3-Amidino-benzoyl-D-phenylglycinyl-D-2-naphthylalaninyl-D-proline [Example 33]
PT CT2 (Concentration required to double clotting time) (plasma [2]): 7.1 µM
thrombin pKi (thrombin): 6.14
trypsin pKi (trypsin): 6.39
FXa pKi (human factor Xa): 7.50

3-Amidino-benzoyl-D-phenylglycinyl-D-2-naphthylalaninyl-glycine [Example 31]
APTT CT2 (Concentration required to double clotting time) (plasma [1]): 3.7 µM
PT CT2 (Concentration required to double clotting time) (plasma [2]): 3.2 µM
thrombin pKi (thrombin): 6.98
trypsin pKi (trypsin): 5.56
FXa pKi (human factor Xa): 6.80

3-Amidino-benzoyl-D-phenylglycinyl-D-phenylalanine-N-pyrrolidinamide [Example 66]
APTT CT2 (Concentration required to double clotting time) (plasma [1]): 4.5 µM
PT CT2 (Concentration required to double clotting time) (plasma [2]): 4.6 µM
thrombin pKi (thrombin): 6.66
trypsin pKi (trypsin): 6.55
FXa pKi (human factor Xa): 6.94

N=C(N)c1ccc(N)c(C(=O)N[C@@H](C(=O)NCC2CCC(CN)CC2)c2ccccc2)c1 (mixture of isomers) [Example 89, 2-Amino-5-amidinobenzoyl-D-phenylglycine-4-amlnomethylcyclohexyl methylamide]
Ki (thrombin): 1.02 µM
Ki (trypsin): 245 nM
Ki (human factor Xa): 14.1 nM

N=C(N)c1cccc(C(=O)NC(C(=O)NCC2CCC(CN)CC2)c2ccc3ccccc3c2)c1 (racemic) [Example 12, 3-Amidino-benzoyl-DL-2-naphthylglycine 4-aminomethylcyclohexyl methylamide]
APTT CT2 (Concentration required to double clotting time) (plasma [1]): 6.5 µM
PT CT2 (Concentration required to double clotting time) (plasma [2]): 3.4 µM
Ki (thrombin): 5.37 µM
Ki (trypsin): 794 nM
Ki (human factor Xa): 407 nM

CC(C)[C@@H](NC(=O)[C@H](NC(=O)c1cccc(C(=N)N)c1)c1ccccc1)C(N)=O [Example 37, 3-Amidino-benzoyl-D-phenylglycinyl-D-valine amide]
APTT CT2 (Concentration required to double clotting time) (plasma [1]): 36 µM
PT CT2 (Concentration required to double clotting time) (plasma [2]): 15 µM
Ki (thrombin): 17 µM
Ki (trypsin): 1450 nM
Ki (human factor Xa): 162 nM

N=C(N)c1cccc(C(=O)N[C@@H](C(=O)N2CCC(C(=O)c3ccccc3)CC2)c2ccccc2)c1 [Example 63, 3-Amidino-benzoyl-D-phenylglycine-4-benzoyl piperidinamide]
PT CT2 (Concentration required to double clotting time) (plasma [2]): 3.7 µM
Ki (thrombin): 1.1 µM
Ki (trypsin): 288 nM

Cc1ccc(CNC(=O)[C@H](NC(=O)c2cccc(C(=N)N)c2)c2ccccc2)cc1 [Example 64, 3-Amidino-benzoyl-D-phenylglycine-4-methylbenzylamide]
APTT CT2 (Concentration required to double clotting time) (plasma [1]): 7.6 µM
PT CT2 (Concentration required to double clotting time) (plasma [2]): 8.3 µM
thrombin pKi (thrombin): 5.72
Ki (trypsin): 1230 nM
Ki (human factor Xa): 87.1 nM

N=C(N)c1cccc(C(=O)N[C@@H](C(=O)NCc2cccc3ccccc23)c2ccccc2)c1 [Example 65, 3-Amidino-benzoyl-D-phenylglycine-1-naphthylmethylamide]
Ki (thrombin): 1.17 µM
Ki (trypsin): 1620 nM
Ki (human factor Xa): 64.6 nM

N=C(N)c1cccc(C(=O)N[C@@H](C(=O)NC2C3CC4CC(C3)CC2C4)c2ccccc2)c1 (stereo partly drawn) [Example 68, 3-Amidino-benzoyl-D-phenylglycine-2adamantylamide]
PT CT2 (Concentration required to double clotting time) (plasma [2]): 17 µM
Ki (thrombin): 4.79 µM
Ki (trypsin): 2570 nM
Ki (human factor Xa): 97.7 nM

C[C@@H](NC(=O)[C@H](NC(=O)c1cccc(C(=N)N)c1)c1ccccc1)c1cccc2ccccc12 [Example 80, 3-Amidino-benzoyl-D-phenylglycine-R-1-(1-naphthyl)ethylamide]
Ki (thrombin): 6.92 µM
Ki (trypsin): 1860 nM
Ki (human factor Xa): 269 nM

CC(=N)N1CCC(CCOC(=O)[C@H](NC(=O)c2cccc(C(=N)N)c2)c2ccccc2)CC1 [Example 84, 3-Amidino-benzoyl-D-phenylglycine-2-(N-acetimino-4-piperidinyl) ethyl ester]
APTT CT2 (Concentration required to double clotting time) (plasma [1]): 5.8 µM
PT CT2 (Concentration required to double clotting time) (plasma [2]): 1.9 µM
Ki (thrombin): 9.12 µM
Ki (trypsin): 2450 nM
Ki (human factor Xa): 10.5 nM

N=C(N)c1cccc(C(=O)N[C@@H](C(=O)OCCC2CCN(C(=N)N)CC2)c2ccccc2)c1 [Example 87, 3-Amidino-benzoyl-D-phenylglycine-2-(N-amidino-4-piperidinyl) ethyl ester]
APTT CT2 (Concentration required to double clotting time) (plasma [1]): 14 µM
PT CT2 (Concentration required to double clotting time) (plasma [2]): 4.2 µM
thrombin pKi (thrombin): 5.10
Ki (trypsin): 1290 nM
Ki (human factor Xa): 24 nM
